Test results reported in patent US7034159B2, “Pharmaceutical compositions comprising 1-isopropyl-3-[(4-m-toluidino-3-pyridyl)sulphonyl]-urea as active ingredient” (Cosma S.p.A., priority 2002, dated 2006).
Read-outs that look alike come from different tables or passages of the source.

Experiments:
[1] = Kondo et al. 1994, susceptibility to humidity/water, cited from earlier work
[2] = Prolonged ICH stability test with pure solid form II, polymorphic transformation followed by FT-IR in KBr; format: physicochemical; details: 25°±2C and 60±5% relative humidity, after 13 months
Method: Prolonged Test with Pure Solid Form II at 25°±2C and 60±5% of Relative Humidity. This type of test which is prescribed according to ICH (Q1A, “Stability testing of new Drug Substances and new Drug Products”, 1st edition Oct. 27, 1997 and 2nd edition Nov. 8, 2000) follows possible degradation of the samples under more mild conditions, but over prolonged periods. The inventors of the present patent application have subjected a series of pure samples of form II of torsemide to this test, and have assayed with the frequency and to the prescribed terms, the possible polymorphic transformations of the samples through the registration of the FT-IR spectra in KBr on the Jasco apparatus.

[3] = Accelerated ICH stability test with pure solid form II, polymorphic transformation followed by FT-IR in KBr; format: physicochemical; details: 40°±2C and 75±5% relative humidity, over 6 months
From the text: For detectable polymorphic transformations is intended transformations visible from changes of the FT-IR spectrum of form II of torsemide registered in KBr. Specifically, the formation of a contamination of 1% or greater (by weight) of form I of torsemide in a sample of pure form II of torsemide would be a detectable polymorphic transformation by means of the relative change of the FT-IR spectrum registered in KBr which would imply the appearance of a peak in the position at 1697 cm^−1. Accelerated Test with Pure Solid Form II at 40°±2C and 75±5% of Relative Humidity. This type of test which is prescribed according to ICH (Q1A, “Stability testing of new Drug Substances and new Drug Products”, 1st edition Oct. 27, 1997 and 2nd edition Nov. 8, 2000) allows, according to internationally recognised procedures, to extrapolate the results obtained with this accelerated test to a mock storage period at room temperature for over 2 years. The inventors of the present patent application have subjected a series of pure samples of form II of torsemide to this test, and have assayed with the frequency and to the prescribed terms, the possible polymorphic transformations of the samples through registration of the FT-IR spectra in KBr on a Jasco apparatus.

[4] = Transformation of form II suspended in water (strong heating or prolonged treatment); format: physicochemical; details: suspended in water and strongly heated, or suspended in water and subjected to prolonged treatment
From the text: 27, 1997 and 2nd edition Nov. 8, 2000) and recognised on the world scale for the evaluation of the stability of pharmaceutical substances.
Form I of torsemide is obtainable from form II of torsemide as above according to the instructions of Kondo, namely by suspension of an aliquot of form II in water (approx. 23 parts by weight) and subsequent stirring for 20 days at room temperature. The melting point of form I of torsemide, used by the inventors of the present patent application, measured with a Büchi B-540 according to USP class 1a (temperature increments of 1° C.±0.5° C./min starting from 10° C. from the expected melting point, inserting the sample at 5° C. from the melting point, then 1° C.±0.5° C./min until reaching the melting point), is 160.1°–160.5° C.

[5] = Drastic test with pure solid form II at 80° C. for two days in the absence of light; format: physicochemical
Method: Drastic Test with Pure Solid Form II at 80° C. for Two Days (Carried Out in the Absence of Light).

polymorphic transformation (FT-IR in KBr, Jasco) [3]	polymorphic transformation in aqueous suspension [4]	SMILES	relative stability of the polymorphic form [1]	polymorphic transformation (FT-IR in KBr, Jasco) [2]	relative stability of the polymorphic form ([1]; listed as form II)	polymorphic transformation [5]
–	–	Cc1cccc(Nc2ccncc2S(=O)(=O)NC(=O)NC(C)C)c1 [form I, 1-isopropyl-3-[(4-m-toluidino-3-pyridyl)sulphonyl]-urea]	sufficiently stable	–	–	–
no detectable polymorphic transformation	transforms into form I	Cc1cccc(Nc2ccncc2S(=O)(=O)NC(=O)NC(C)C)c1 [form II of torsemide, 1-isopropyl-3-[(4-m-toluidino-3-pyridyl)sulphonyl]-urea]	–	could not see any detectable polymorphic transformation	poorly stable	does not show a detectable polymorphic transformation
